≈ marks a conversion by molar mass, not a printed value. Read-outs that look alike come from different tables or passages of the source.
How the values were obtained:
[1] = tested on: rat (RLM) liver microsomal proteins; experiment: Metabolic stability in liver microsomal protein; format: in vitro ADME; details: 5 μM
[2] = Solubility in saline at room temperature; format: physicochemical; details: saline or isotonic
HT29 monolayer = experiment: Clonogenic survival of monolayer cells (Example 35); format: cell-based; details: Homo sapiens
[3] = tested on: human (HLM) liver microsomal proteins; experiment: Metabolic stability in liver microsomal protein; format: in vitro ADME; details: Table 2A, second study, 5 μM
NCI H460 xenograft = experiment: H460 xenograft mouse model, 150 mg/kg weekly with CDDP (Example 53); format: in vivo
Procedure: Female CB17/SCID mice (purchased from Charles River, Cambridge, Mass.), 7-8 weeks of age, were allowed to acclimatize for at least three days, and handled under pathogen-free conditions. Human non-small cell lung cell line NCI H460 was obtained from the American Type Culture Collection. The cell lines were cultured and harvested as described in Example 47 and inoculated at 3×10^6 cells/animal in the peritoneal subcutaneous space. When the tumors grew to an average volume of 100 mm^3, treatment was initiated in which groups of 10 mice received vehicle (Group 1), CDDP at 6 mg/kg (IV one time, Group 2), Compound 25 at 150 mg/kg in saline, once a week for two weeks (i.p., Group 3), or the combination of the two agents (Group 4).

[4] = In vivo plasma or tumor pharmacokinetics of Compound 25 (Table 4); set-up: species or system CD-1 mice (nude mice where noted)
[5] = Preliminary toxicity in mice (Example 56); format: in vivo
Excerpt: It is recognized that efficacious molecules for treatment of human diseases including cancer may be toxic at doses near or sometime much greater than doses necessary to achieve beneficial effects. To determine appropriate dose and route of administering such a compound, it is necessary to understand its toxicity. Routinely, initial approaches to determining the toxic dose involve the use of rodents such as mice to provide preliminary data that might support the design of similar studies in larger animals and humans. Test compounds (Compounds 24, 25 and 36) were tested in mice as preliminary experiments for determining doses to be used in larger animals. […] These doses selected represent an approximation of doses that might be used in larger animals such as rats and dogs for the purpose of confirming that such toxicities exist and for predicting if renal function should be measured in humans.

human H460 cells = experiment: Clonogenic survival assay, hypoxia vs normoxia (Table 1A); details: for IC90: Homo sapiens
HT29 = experiment: Clonogenic assay, hypoxia vs normoxia (Table 1B); details: Homo sapiens, HT-29, read-out: HT29 C H (clonogenic IC90, hypoxia)
[6] = tested on: HT-29 human colon carcinoma xenograft; experiment: HT-29 human colon carcinoma xenograft mouse model (Example 47); format: in vivo; details: for % Inhibition vs Group 1: vs vehicle
Procedure: Female CB17/SCID mice (purchased from Charles River, Cambridge, Mass.), 7-8 weeks of age, were allowed to acclimatize for at least three days, and handled under pathogen-free conditions. Human colon carcinoma cell line HT-29 was obtained from the American Type Culture Collection. The cell lines were cultured in RPMI 1640 media supplemented with 10% fetal bovine serum. Cells were maintained in a 37° C. incubator with 5% CO2. The HT-29 cells were harvested from culture and inoculated at 3×10^6 cells/animal in the peritoneal subcutaneous space. When the tumors grew to an average volume of 100 mm^3 (day 8), each group of 10 mice was administered, for three weeks, vehicle alone (saline and PEG (10 mL/kg each), Group 1), Compound 36 alone (dissolved in 30% cyclodextrin in PBS) at a daily dose of 20, 60, or 200 mg/kg (Groups 2, 3 and 4, respectively), and Compound 36 at a daily dose of 20, 60, and 200 mg/kg given 2-3 hours after a dose of 10 mg/kg of 5FU (in saline) (Group 5, 6 and 7, respectively) and compared to a group receiving only 5FU at 10 mg/kg (Group 8) as tabulated below.
The body weight of each mouse was recorded twice per week. Growth of each xenograft was monitored by externally measuring tumors in two dimensions using a digital caliper twice per week. Tumor volume (V) was determined by the following equation: V=(L×W^2)/2, where L is the length and W is the width of a xenograft. Tumor volumes were measured twice weekly.

[7] = 50 mg/kg i.v., 30% PEG/70% Saline, CD-1 mice
[8] = CD-1, mouse, plasma, ip, 25 mg/kg, 25 mg/kg i.p., 10% PEG, CD-1 mice
[9] = CD-1, mouse, plasma, ip, 50 mg/kg, 50 mg/kg i.p., Saline, CD-1 mice
[10] = CD-1, mouse, plasma, iv, 50 mg/kg, 50 mg/kg i.v., 30% PEG/70% Saline, CD-1 mice
[11] = CD-1, mouse, plasma, po, 50 mg/kg, 50 mg/kg p.o., Saline, CD-1 mice
[12] = CD-1, mouse, plasma, po, 100 mg/kg, 100 mg/kg p.o., Saline, CD-1 mice
[13] = nude, mouse, plasma, ip, 150 mg/kg, 150 mg/kg i.p., Saline, nude mice with H460 tumor
[14] = nude, mouse, tumor, ip, 150 mg/kg, 150 mg/kg i.p., Saline, nude mice with H460 tumor, Tumor PK

For `Cn1c(COP(=O)(NCCBr)NCCBr)cnc1[N+](=O)[O-]` [Compound 25], the “Metabolic stability (% at 30 min) RLM” value ([1]; Table 1, first study) was 84%, the “Metabolic stability (% at 30 min) RLM” value ([1]; Table 2A, second study) was 137% and the solubility [2] was 15 mg/mL (≈ 33.4 mM). For the same compound, the IC90 (HT29 monolayer; HT-29, read-out: IC90 HT29 Monolayer 0.6% O2) was 3000 nM, the IC90 (HT29 monolayer; HT-29, read-out: IC90 HT29 Monolayer Air) was 40000 nM and the IC90 (HT29 monolayer; HT-29, read-out: IC90 HT29 Monolayer N2) was 200 nM. The “Metabolic stability (% at 30 min) HLM” value [3] was 127%, the body weight (NCI H460 xenograft; 150 mg/kg once a week) was “Little change in body weight” and the “tumor growth during the two week period of dosing” value (NCI H460 xenograft; 150 mg/kg once a week for two weeks, i.p.) was “complete inhibition of tumor growth”. The AUC [4, 7] was 177 µg·h/mL, the half-life [4, 7] was 10.1 min and the Cmax [4, 8] was 6330 ng/mL. For the same compound, the Tmax [4, 8] was 45 min, the AUC ([4]; CD-1, mouse, plasma, ip, 25 mg/kg, 25 mg/kg i.p., 10% PEG, CD-1 mice, read-out: AUC) was 247 µg·h/mL and the half-life ([4]; CD-1, mouse, plasma, ip, 25 mg/kg, 25 mg/kg i.p., 10% PEG, CD-1 mice, read-out: Half-life) was 4.43 min. The AUC ([4]; CD-1, mouse, plasma, ip, 50 mg/kg, 50 mg/kg i.p., 30% PEG/70% Saline, CD-1 mice, read-out: AUC) was 438 µg·h/mL, the half-life ([4]; CD-1, mouse, plasma, ip, 50 mg/kg, 50 mg/kg i.p., 30% PEG/70% Saline, CD-1 mice, read-out: Half-life) was 11 min and the Cmax [4, 9] was 38500 ng/mL. The Tmax [4, 9] was 5 min, the AUC ([4]; CD-1, mouse, plasma, ip, 50 mg/kg, 50 mg/kg i.p., Saline, CD-1 mice, read-out: AUC) was 635 µg·h/mL and the half-life ([4]; CD-1, mouse, plasma, ip, 50 mg/kg, 50 mg/kg i.p., Saline, CD-1 mice, read-out: Half-life) was 7.91 min. The Cmax [4, 10] was 27500 ng/mL, the Tmax [4, 10] was 2 min and the AUC ([4]; CD-1, mouse, plasma, iv, 50 mg/kg, 50 mg/kg i.v., 30% PEG/70% Saline, CD-1 mice, read-out: AUC) was 325 µg·h/mL. It also gave a half-life ([4]; CD-1, mouse, plasma, iv, 50 mg/kg, 50 mg/kg i.v., 30% PEG/70% Saline, CD-1 mice, read-out: Half-life) of 6.7 min, a Cmax [4, 11] of 930 ng/mL and a Tmax [4, 11] of 15 min. It also gave an AUC ([4]; CD-1, mouse, plasma, po, 50 mg/kg, 50 mg/kg p.o., Saline, CD-1 mice, read-out: AUC) of 40.4 µg·h/mL, a half-life ([4]; CD-1, mouse, plasma, po, 50 mg/kg, 50 mg/kg p.o., Saline, CD-1 mice, read-out: Half-life) of 25.7 min and a Cmax [4, 12] of 15800 ng/mL. It also gave a Tmax [4, 12] of 15 min, an AUC ([4]; CD-1, mouse, plasma, po, 100 mg/kg, 100 mg/kg p.o., Saline, CD-1 mice, read-out: AUC) of 784 µg·h/mL and a half-life ([4]; CD-1, mouse, plasma, po, 100 mg/kg, 100 mg/kg p.o., Saline, CD-1 mice, read-out: Half-life) of 95.2 min. It also gave a bioavailability ([4]; mouse, plasma, po, 50 mg/kg p.o., Saline, CD-1 mice, read-out: F (Bioavailability)) of 13.6%, a Cmax [4, 13] of 90100 ng/mL and a Tmax [4, 13] of 5 min. For the same compound, the AUC ([4]; nude, mouse, plasma, ip, 150 mg/kg, 150 mg/kg i.p., Saline, nude mice with H460 tumor, plasma, read-out: AUC) was 1240 µg·h/mL, the half-life ([4]; nude, mouse, plasma, ip, 150 mg/kg, 150 mg/kg i.p., Saline, nude mice with H460 tumor, plasma, read-out: Half-life) was 58.7 min and the Cmax [4, 14] was 3380 ng/mL. The Tmax [4, 14] was 15 min, the AUC ([4]; nude, mouse, tumor, ip, 150 mg/kg, 150 mg/kg i.p., Saline, nude mice with H460 tumor, Tumor PK, read-out: AUC) was 307 µg·h/mL and the white blood cells [5] was “Transient reductions in white blood cells”. For the same compound, the “toxicity at 300 mg/kg single dose” value ([5]; 300 mg/kg single dose) was “renal toxicities such as tubular necrosis and protein spillage into the urine” and the “toxicity at lower doses (100 and 200 mg/kg)” value ([5]; 100 and 200 mg/kg) was “little toxicity”.
For `Cn1c(COP(=O)(NCCCl)NCCCl)cnc1[N+](=O)[O-]` [Compound 36], the IC90 (human H460 cells; NCI-H460, read-out: Hypoxia C (clonogenic IC90)) was 200 nM, the IC90 (human H460 cells; NCI-H460, read-out: Normoxia C (clonogenic IC90)) was over 100000 nM and the “HCR C” value (human H460 cells; ratio of IC90 in normoxia and hypoxia) was over 500. For the same compound, the MTD (in vivo) was 400 mg/kg, the IC90 (HT29) was 3000 nM and the “% Inhibition vs Group 1” value ([6]; Group 2: Compound 36 20 mg/kg daily, 3 weeks) was 34.6%. The “% Inhibition vs Group 1” value ([6]; Group 3: Compound 36 60 mg/kg daily) was 16.1%, the “% Inhibition vs Group 1” value ([6]; Group 4: Compound 36 200 mg/kg daily) was 20.2% and the “body weight and mortality” value ([6]; particularly high dose group) was “some degree of weight loss and occasional mortality”.
